In US9012655B2, “Antimicrobial/adjuvant compounds and methods” (Denouamed, Inc., priority 2011, dated 2015):
Values after ≈ are worked out from the molar mass of the structure shown.

Assays:
Assay in all cases: MIC panel of challenge pathogens (CLSI)
Type in all cases: cell-based
[1] = system: Staphylococcus aureus AUR59 7005; details: AUR597005, Staphylococcus aureus AUR59 7005
Experimental: (§1) The inocula for each bacterial strain were prepared by picking 5-10 distinct colonies from the culture plates and suspending them in the appropriate broth as per Clinical and Laboratory Standards Institute (CLSI) guidelines M07-A8, M24-A or M11-A7 as appropriate. The inoculum was resuspended by vigorous shaking on a vortex mixer for 15 s. The turbidity was then adjusted to McFarland standard 0.5 ([…]). The inoculum was further diluted in the appropriate media for MIC tests to give a final inoculum in each well of 2-8×10^5 CFU/ml. MICs were tested in the appropriate broth in accordance with the appropriate CLSI guidelines.
(§2) A stock solution of each compound was prepared at a concentration of 1.28 g/L in DMSO. The stock was further diluted in the appropriate media to give a top starting concentration of 128 mg/L in the assay. 100 μL of the appropriate media, as per CLSI guidelines, was dispensed into each well in columns 2-12. 200 μL of the each compound solution (at 256 mg/L) was dispensed into each well in column 1. 100 μL aliquots were pipetted from column 1 wells and dispensed into column 2 with a multichannel pipette (±2% coefficient of variation) thus diluting two-fold. 100 μL samples were then pipetted from column 2 wells and dispensed into column 3. The process was repeated through to column 10. The final 100 μL of diluted drug from column 10 was then discarded. Row 11 acted as a positive control (no compound, but organisms added), Row 12 acted as a negative control (no compound, and no organisms added).
(§3) 100 μL of the appropriate inoculum suspension in the appropriate media, as per CLSI guidelines, was added to the appropriate wells. […] All plates were incubated in the dark under aerobic or anaerobic conditions at 30-37° C. for 24-48 hours, according to the appropriate CLSI guideline. Plates were read visually 24-48 hours post inoculation. Endpoints of 100% inhibition were determined (CLSI interpretation endpoints following visual examination).
(§4) MIC50, MIC80, and 100% inhibition results are reported below in μg/mL in the following Tables, indicating each compound tested against a given species and strain: […]

[2] = system: Staphylococcus aureus NRS1 (ATCC700699); details: Staphylococcus aureus NRS1 (ATCC700699)
Experimental: as §1, §2, §3, §4

[3] = system: Staphylococcus epidermidis NRS7; details: Staphylococcus epidermidis NRS7
Experimental: as §1, §2, §3, §4

Bacillus cereus NCTC6349 = details: Bacillus cereus NCTC6349
Experimental: as §1, §2, §3, §4

[4] = system: Staphylococcus aureus NRS383; details: Staphylococcus aureus NRS383
Experimental: as §1, §2, §3, §4

[5] = system: Staphylococcus aureus ATCC43300; details: Staphylococcus aureus ATCC43300
Experimental: as §1, §2, §3, §4

[6] = system: Staphylococcus aureus EUP SAU040; details: EUPSAU040, Staphylococcus aureus EUP SAU040
Experimental: as §1, §2, §3, §4

[7] = system: Staphylococcus epidermidis NRS122; details: Staphylococcus epidermidis NRS122
Experimental: as §1, §2, §3, §4

[8] = system: Staphylococcus aureus NRS2 (ATCC700698); details: Staphylococcus aureus NRS2 (ATCC700698)
Experimental: as §1, §2, §3, §4

[9] = system: Enterococcus faecalis ATCC29212; details: Enterococcus faecalis ATCC29212
Experimental: as §1, §2, §3, §4

[10] = system: Staphylococcus aureus NRS384; details: Staphylococcus aureus NRS384
Experimental: as §1, §2, §3, §4

[11] = system: Enterococcus faecalis ATCC51299; details: Enterococcus faecalis ATCC51299
Experimental: as §1, §2, §3, §4

[12] = system: Staphylococcus aureus AUR60 7005; details: AUR607005, Staphylococcus aureus AUR60 7005
Experimental: as §1, §2, §3, §4

[13] = system: Staphylococcus aureus AUR58 7005; details: AUR587005, Staphylococcus aureus AUR58 7005
Experimental: as §1, §2, §3, §4

[14] = system: Staphylococcus aureus EUP MRSA004; details: EUPMRSA004, Staphylococcus aureus EUP MRSA004
Experimental: as §1, §2, §3, §4

[15] = system: Staphylococcus aureus EUP MRSA002; details: EUPMRSA002, Staphylococcus aureus EUP MRSA002
Experimental: as §1, §2, §3, §4

[16] = system: Enterococcus faecium ATCC700221; details: Enterococcus faecium ATCC700221
Experimental: as §1, §2, §3, §4

[17] = system: Staphylococcus aureus AUR131 007035; details: AUR131007035, Staphylococcus aureus AUR131 007035
Experimental: as §1, §2, §3, §4

[18] = system: Staphylococcus aureus NRS382; details: Staphylococcus aureus NRS382
Experimental: as §1, §2, §3, §4

In the case of `Clc1ccc(-c2cc(-c3nnn[nH]3)sc2-c2ccc(Cl)cc2)cc1` [DNM0487, 5-(4,5-Bis(4-chlorophenyl)thiophen-2-yl)-1H-tetrazole], the MIC ([1]; read-out: 100% inhibition) is reported as 1 µg/mL (≈ 2.68 µM), the MIC50 ([1]; read-out: MIC50 (50%)) is reported as 1 µg/mL (≈ 2.68 µM) and the MIC80 ([1]; read-out: MIC80 (80%)) is reported as 1 µg/mL (≈ 2.68 µM). For the same compound, the MIC ([2]; read-out: 100% inhibition) was 0.5 µg/mL (≈ 1.34 µM), the MIC50 ([2]; read-out: MIC50 (50%)) was 0.25 µg/mL (≈ 0.67 µM) and the MIC80 ([2]; read-out: MIC80 (80%)) was 0.5 µg/mL (≈ 1.34 µM). The MIC ([3]; read-out: 100% inhibition) was 1 µg/mL (≈ 2.68 µM), the MIC50 ([3]; read-out: MIC50 (50%)) was 0.5 µg/mL (≈ 1.34 µM) and the MIC80 ([3]; read-out: MIC80 (80%)) was 1 µg/mL (≈ 2.68 µM). It also gave an MIC (Bacillus cereus NCTC6349; read-out: 100% inhibition) of 0.5 µg/mL (≈ 1.34 µM), an MIC50 (Bacillus cereus NCTC6349; read-out: MIC50 (50%)) of 0.5 µg/mL (≈ 1.34 µM) and an MIC80 (Bacillus cereus NCTC6349; read-out: MIC80 (80%)) of 0.5 µg/mL (≈ 1.34 µM). It also gave an MIC ([4]; read-out: 100% inhibition) of 1 µg/mL (≈ 2.68 µM), an MIC50 ([4]; read-out: MIC50 (50%)) of 1 µg/mL (≈ 2.68 µM) and an MIC80 ([4]; read-out: MIC80 (80%)) of 1 µg/mL (≈ 2.68 µM). For the same compound, the MIC ([5]; read-out: 100% inhibition) was 1 µg/mL (≈ 2.68 µM), the MIC50 ([5]; read-out: MIC50 (50%)) was 1 µg/mL (≈ 2.68 µM) and the MIC80 ([5]; read-out: MIC80 (80%)) was 1 µg/mL (≈ 2.68 µM). It also gave an MIC ([6]; read-out: 100% inhibition) of 2 µg/mL (≈ 5.36 µM), an MIC50 ([6]; read-out: MIC50 (50%)) of 1 µg/mL (≈ 2.68 µM) and an MIC80 ([6]; read-out: MIC80 (80%)) of 1 µg/mL (≈ 2.68 µM). For the same compound, the MIC ([7]; read-out: 100% inhibition) was 4 µg/mL (≈ 10.7 µM), the MIC50 ([7]; read-out: MIC50 (50%)) was 4 µg/mL (≈ 10.7 µM) and the MIC80 ([7]; read-out: MIC80 (80%)) was 4 µg/mL (≈ 10.7 µM). For the same compound, the MIC ([8]; read-out: 100% inhibition) was 2 µg/mL (≈ 5.36 µM), the MIC50 ([8]; read-out: MIC50 (50%)) was 1 µg/mL (≈ 2.68 µM) and the MIC80 ([8]; read-out: MIC80 (80%)) was 2 µg/mL (≈ 5.36 µM). The MIC ([9]; read-out: 100% inhibition) was 2 µg/mL (≈ 5.36 µM), the MIC50 ([9]; read-out: MIC50 (50%)) was 2 µg/mL (≈ 5.36 µM) and the MIC80 ([9]; read-out: MIC80 (80%)) was 2 µg/mL (≈ 5.36 µM). It also gave an MIC ([10]; read-out: 100% inhibition) of 1 µg/mL (≈ 2.68 µM), an MIC50 ([10]; read-out: MIC50 (50%)) of 1 µg/mL (≈ 2.68 µM) and an MIC80 ([10]; read-out: MIC80 (80%)) of 1 µg/mL (≈ 2.68 µM). For the same compound, the MIC ([11]; read-out: 100% inhibition) was 2 µg/mL (≈ 5.36 µM), the MIC50 ([11]; read-out: MIC50 (50%)) was 1 µg/mL (≈ 2.68 µM) and the MIC80 ([11]; read-out: MIC80 (80%)) was 2 µg/mL (≈ 5.36 µM). For the same compound, the MIC ([12]; read-out: 100% inhibition) was 1 µg/mL (≈ 2.68 µM), the MIC50 ([12]; read-out: MIC50 (50%)) was 1 µg/mL (≈ 2.68 µM) and the MIC80 ([12]; read-out: MIC80 (80%)) was 1 µg/mL (≈ 2.68 µM). For the same compound, the MIC ([13]; read-out: 100% inhibition) was 1 µg/mL (≈ 2.68 µM), the MIC50 ([13]; read-out: MIC50 (50%)) was 1 µg/mL (≈ 2.68 µM) and the MIC80 ([13]; read-out: MIC80 (80%)) was 1 µg/mL (≈ 2.68 µM). For the same compound, the MIC ([14]; read-out: 100% inhibition) was 2 µg/mL (≈ 5.36 µM), the MIC50 ([14]; read-out: MIC50 (50%)) was 1 µg/mL (≈ 2.68 µM) and the MIC80 ([14]; read-out: MIC80 (80%)) was 2 µg/mL (≈ 5.36 µM). The MIC ([15]; read-out: 100% inhibition) was 2 µg/mL (≈ 5.36 µM), the MIC50 ([15]; read-out: MIC50 (50%)) was 1 µg/mL (≈ 2.68 µM) and the MIC80 ([15]; read-out: MIC80 (80%)) was 2 µg/mL (≈ 5.36 µM). For the same compound, the MIC ([16]; read-out: 100% inhibition) was 1 µg/mL (≈ 2.68 µM), the MIC50 ([16]; read-out: MIC50 (50%)) was 1 µg/mL (≈ 2.68 µM) and the MIC80 ([16]; read-out: MIC80 (80%)) was 1 µg/mL (≈ 2.68 µM). The MIC ([17]; read-out: 100% inhibition) was 1 µg/mL (≈ 2.68 µM), the MIC50 ([17]; read-out: MIC50 (50%)) was 1 µg/mL (≈ 2.68 µM) and the MIC80 ([17]; read-out: MIC80 (80%)) was 1 µg/mL (≈ 2.68 µM). For the same compound, the MIC ([18]; read-out: 100% inhibition) was 1 µg/mL (≈ 2.68 µM), the MIC50 ([18]; read-out: MIC50 (50%)) was 1 µg/mL (≈ 2.68 µM) and the MIC80 ([18]; read-out: MIC80 (80%)) was 1 µg/mL (≈ 2.68 µM).
